Experimental data as given in ChEMBL document CHEMBL1201861, “Genomics of Drug Sensitity in Cancer screening data, Wellcome Trust Sanger Institute”.

Tests used:
Test in all cases: cells
Assay type in all cases: functional, cell-based, Homo sapiens
[1] = system: COLO-678; settings: Homo sapiens, COLO-678
Description: SANGER: Inhibition of human COLO-678 cell growth in a cell viability assay.

[2] = system: CP50-MEL-B; settings: Homo sapiens, CP50-MEL-B;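 also: growth inhibition of the human cell line, measured with a cell viability read-out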
Description: SANGER: Inhibition of human CP50-MEL-B cell growth in a cell viability assay.

[3] = system: A673; settings: Homo sapiens, A673;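 also: growth inhibition of human A673 cells, read out through a cell viability assay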
Description: SANGER: Inhibition of human A673 cell growth in a cell viability assay.

[4] = system: OAW-42; settings: Homo sapiens, OAW-42;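 also: growth inhibition of OAW-42 cells, read out with a cell viability assay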
Description: SANGER: Inhibition of human OAW-42 cell growth in a cell viability assay.

[5] = system: G-402; settings: Homo sapiens, G-402
Description: SANGER: Inhibition of human G-402 cell growth in a cell viability assay.

[6] = system: MCF7; settings: Homo sapiens, MCF7;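 also: growth inhibition of human MCF7 cells, read out with a cell viability assay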
Description: SANGER: Inhibition of human MCF7 cell growth in a cell viability assay.

[7] = system: NCI-H2347; settings: Homo sapiens, NCI-H2347;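 also: growth inhibition of the cell line, read out with a cell viability assay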
Description: SANGER: Inhibition of human NCI-H2347 cell growth in a cell viability assay.

[8] = system: CAL-39; settings: Homo sapiens, CAL-39;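 also: cell viability assay measuring growth inhibition of CAL-39 cells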
Description: SANGER: Inhibition of human CAL-39 cell growth in a cell viability assay.

[9] = system: COLO-741; settings: Homo sapiens, COLO-741
Description: SANGER: Inhibition of human COLO-741 cell growth in a cell viability assay.

[10] = system: RT-112; settings: Homo sapiens, RT-112
Description: SANGER: Inhibition of human RT-112 cell growth in a cell viability assay.

[11] = system: ACHN; settings: Homo sapiens, ACHN;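 also: cell viability read-out used to gauge how strongly growth of human ACHN cells is suppressed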
Description: SANGER: Inhibition of human ACHN cell growth in a cell viability assay.

[12] = system: T84; settings: Homo sapiens, T84;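 also: growth inhibition measured with a cell viability readout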
Description: SANGER: Inhibition of human T84 cell growth in a cell viability assay.

[13] = system: T98G; settings: Homo sapiens, T98G;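 also: growth inhibition of T98G cells, read out by a cell viability assay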
Description: SANGER: Inhibition of human T98G cell growth in a cell viability assay.

[14] = system: Huh-7; settings: Homo sapiens, Huh-7;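 also: HuH-7 cell growth inhibition, read out with a cell viability assay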
Description: SANGER: Inhibition of human HuH-7 cell growth in a cell viability assay.

[15] = system: NB7; settings: Homo sapiens, NB7;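 also: growth inhibition of NB7 cells, read out with a cell viability assay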
Description: SANGER: Inhibition of human NB7 cell growth in a cell viability assay.

[16] = system: 639-V; settings: Homo sapiens, 639-V;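 also: growth inhibition of 639-V cells, read out with a cell viability assay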
Description: SANGER: Inhibition of human 639-V cell growth in a cell viability assay.

[17] = system: SW837; settings: Homo sapiens, SW837;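 also: growth inhibition of SW837 cells, determined with a cell viability assay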
Description: SANGER: Inhibition of human SW837 cell growth in a cell viability assay.

[18] = system: LCLC-97TM1; settings: Homo sapiens, LCLC-97TM1;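 also: cell viability assay measuring growth inhibition of human LCLC-97TM1 cells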
Description: SANGER: Inhibition of human LCLC-97TM1 cell growth in a cell viability assay.

[19] = system: HuO-3N1; settings: Homo sapiens, HuO-3N1;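 also: cell viability readout used to measure how strongly compounds suppress proliferation of human HuO-3N1 cells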
Description: SANGER: Inhibition of human HuO-3N1 cell growth in a cell viability assay.

[20] = system: OVCAR-5; settings: Homo sapiens, OVCAR-5;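 also: growth inhibition of human OVCAR-5 cells, read out with a cell viability assay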
Description: SANGER: Inhibition of human OVCAR-5 cell growth in a cell viability assay.

[21] = system: MFE-280; settings: Homo sapiens, MFE-280;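 also: growth inhibition of MFE-280 cells, determined with a cell viability readout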
Description: SANGER: Inhibition of human MFE-280 cell growth in a cell viability assay.

[22] = system: MDA-MB-361; settings: Homo sapiens, MDA-MB-361
[23] = system: NCI-H2342; settings: Homo sapiens, NCI-H2342;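 also: growth inhibition of the cancer cell line, determined with a cell viability assay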
Description: SANGER: Inhibition of human NCI-H2342 cell growth in a cell viability assay.

[24] = system: KNS-62; settings: Homo sapiens, KNS-62;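 also: inhibition of cell growth, read out with a cell viability assay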
Description: SANGER: Inhibition of human KNS-62 cell growth in a cell viability assay.

[25] = system: SW 1116; settings: Homo sapiens, SW 1116;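 also: growth inhibition of SW1116 cells, read out with a cell viability assay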
Description: SANGER: Inhibition of human SW1116 cell growth in a cell viability assay.

[26] = system: A204; settings: Homo sapiens, A204;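 also: growth inhibition of human A204 cells, read out with a cell viability assay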
Description: SANGER: Inhibition of human A204 cell growth in a cell viability assay.

[27] = system: NCI-H1573; settings: Homo sapiens, NCI-H1573;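 also: growth inhibition of NCI-H1573 cells, read out with a cell viability assay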
Description: SANGER: Inhibition of human NCI-H1573 cell growth in a cell viability assay.

[28] = system: MDA-MB-453; settings: Homo sapiens, MDA-MB-453
Description: SANGER: Inhibition of human MDA-MB-453 cell growth in a cell viability assay.

[29] = system: NCI-H661; settings: Homo sapiens, NCI-H661;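 also: cell viability assay read-out, IC50 being the concentration that inhibits growth of the cells by half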
Description: SANGER: Inhibition of human NCI-H661 cell growth in a cell viability assay.

[30] = system: SCC-25; settings: Homo sapiens, SCC-25;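 also: growth inhibition of SCC-25 cells, measured with a cell viability assay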
Description: SANGER: Inhibition of human SCC-25 cell growth in a cell viability assay.

[31] = system: NCI-H28; settings: Homo sapiens, NCI-H28;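 also: growth inhibition of human NCI-H28 cells, read out as cell viability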
Description: SANGER: Inhibition of human NCI-H28 cell growth in a cell viability assay.

[32] = system: HCC1937; settings: Homo sapiens, HCC1937;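 also: growth inhibition measured with a cell viability read-out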
Description: SANGER: Inhibition of human HCC1937 cell growth in a cell viability assay.

[33] = system: KYSE-450; settings: Homo sapiens, KYSE-450;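 also: cell growth inhibition measured by a viability assay in human KYSE-450 cells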
Description: SANGER: Inhibition of human KYSE-450 cell growth in a cell viability assay.

[34] = system: MOLT-13; settings: Homo sapiens, MOLT-13;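 also: IC50 for suppression of MOLT-13 cell growth, read out with a cell viability assay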
Description: SANGER: Inhibition of human MOLT-13 cell growth in a cell viability assay.

[35] = system: NCI-H2009; settings: Homo sapiens, NCI-H2009;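 also: cell viability assay measuring inhibition of NCI-H2009 cell growth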
Description: SANGER: Inhibition of human NCI-H2009 cell growth in a cell viability assay.

[36] = system: HSC-4; settings: Homo sapiens, HSC-4;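 also: growth inhibition of human HSC-4 cells, read out with a cell viability assay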
Description: SANGER: Inhibition of human HSC-4 cell growth in a cell viability assay.

SMILES | IC50 [1] | IC50 [2] | IC50 [3] | IC50 [4] | IC50 [5] | IC50 [8] | IC50 [10] | IC50 [13] | IC50 [14] | IC50 [16] | IC50 [18] | IC50 [19] | IC50 [20] | IC50 [22] | IC50 [23] | IC50 [24] | IC50 [25] | IC50 [27] | IC50 [28] | IC50 [29] | further results
COc1cc2c(Nc3ccc(NC(=O)c4ccccc4)cc3)ncnc2cc1OCCCN1CCOCC1 | > 4 µM | > 4 µM | > 4 µM | > 4 µM | > 4 µM | > 4 µM | 2.66 µM | 3.95 µM | > 4 µM | > 4 µM | 2.18 µM | > 4 µM | > 4 µM | > 4 µM | > 4 µM | > 4 µM | > 4 µM | > 4 µM | > 4 µM | 2.99 µM | IC50 [6]: > 4 µM; IC50 [7]: > 4 µM; IC50 [9]: > 4 µM; IC50 [11]: > 4 µM; IC50 [12]: > 4 µM; IC50 [15]: 1.75 µM; IC50 [17]: > 4 µM; IC50 [21]: 3.41 µM; IC50 [26]: > 4 µM; IC50 [30]: > 4 µM; IC50 [31]: > 4 µM; IC50 [32]: > 4 µM; IC50 [33]: > 4 µM; IC50 [34]: 1.57 µM
CC(C)CCN1c2nc(Nc3cc(F)c(O)c(F)c3)ncc2N(C)C(=O)C1C (centres undefined) | > 5 µM | > 5 µM | > 5 µM | > 5 µM | > 5 µM | 4.94 µM | > 5 µM | 3.28 µM | > 5 µM | 2.72 µM | 2.6 µM | > 5 µM | > 5 µM | > 5 µM | > 5 µM | > 5 µM | > 5 µM | > 5 µM | > 5 µM | > 5 µM | IC50 [6]: > 5 µM; IC50 [7]: > 5 µM; IC50 [9]: > 5 µM; IC50 [11]: > 5 µM; IC50 [12]: > 5 µM; IC50 [15]: > 5 µM; IC50 [17]: > 5 µM; IC50 [21]: > 5 µM; IC50 [35]: > 5 µM; IC50 [26]: > 5 µM; IC50 [30]: > 5 µM; IC50 [31]: > 5 µM; IC50 [32]: > 5 µM; IC50 [33]: > 5 µM; IC50 [34]: 3.97 µM
Nc1cccc2c1CN(C1CCC(=O)NC1=O)C2=O (centres undefined) [LENALIDOMIDE] | > 5 µM | > 5 µM | > 5 µM | > 5 µM | > 5 µM | > 5 µM | > 5 µM | > 5 µM | > 5 µM | > 5 µM | > 5 µM | > 5 µM | > 5 µM | > 5 µM | > 5 µM | > 5 µM | > 5 µM | > 5 µM | > 5 µM | > 5 µM | IC50 [6]: > 5 µM; IC50 [7]: > 5 µM; IC50 [9]: > 5 µM; IC50 [11]: > 5 µM; IC50 [12]: > 5 µM; IC50 [15]: > 5 µM; IC50 [17]: > 5 µM; IC50 [36]: > 5 µM; IC50 [21]: > 5 µM; IC50 [35]: > 5 µM; IC50 [26]: > 5 µM; IC50 [30]: > 5 µM; IC50 [31]: > 5 µM; IC50 [32]: > 5 µM; IC50 [33]: > 5 µM; IC50 [34]: > 5 µM
CN(C)C(=N)NC(=N)N [METFORMIN] | > 20000 µM | > 20000 µM | 19200 µM | 18100 µM | 11300 µM | > 20000 µM | > 20000 µM | > 20000 µM | 15500 µM | > 20000 µM | 3170 µM | 7800 µM | > 20000 µM | > 20000 µM | 8620 µM | > 20000 µM | > 20000 µM | 16900 µM | 12900 µM | 4560 µM | IC50 [11]: > 20000 µM; IC50 [17]: > 20000 µM; IC50 [36]: 5480 µM; IC50 [30]: 12200 µM; IC50 [31]: 12000 µM; IC50 [32]: > 20000 µM; IC50 [33]: > 20000 µM; IC50 [34]: 556 µM
CC1(C)CNc2cc(NC(=O)c3cccnc3NCc3ccncc3)ccc21 [MOTESANIB] | > 2 µM | > 2 µM | > 2 µM | > 2 µM | 1.02 µM | > 2 µM | 1.59 µM | > 2 µM | > 2 µM | > 2 µM | > 2 µM | > 2 µM | > 2 µM | > 2 µM | > 2 µM | > 2 µM | > 2 µM | > 2 µM | > 2 µM | > 2 µM | IC50 [6]: > 2 µM; IC50 [7]: > 2 µM; IC50 [9]: > 2 µM; IC50 [11]: > 2 µM; IC50 [12]: > 2 µM; IC50 [15]: > 2 µM; IC50 [17]: > 2 µM; IC50 [21]: > 2 µM; IC50 [26]: 0.519 µM; IC50 [30]: > 2 µM; IC50 [31]: > 2 µM; IC50 [32]: > 2 µM; IC50 [33]: > 2 µM; IC50 [34]: > 2 µM
Cc1cn(-c2cc(NC(=O)c3ccc(C)c(Nc4nccc(-c5cccnc5)n4)c3)cc(C(F)(F)F)c2)cn1 [NILOTINIB] | > 2 µM | > 2 µM | > 2 µM | > 2 µM | > 2 µM | > 2 µM | > 2 µM | > 2 µM | > 2 µM | > 2 µM | > 2 µM | > 2 µM | > 2 µM | > 2 µM | > 2 µM | > 2 µM | > 2 µM | > 2 µM | > 2 µM | > 2 µM | IC50 [6]: > 2 µM; IC50 [7]: > 2 µM; IC50 [9]: > 2 µM; IC50 [11]: > 2 µM; IC50 [12]: > 2 µM; IC50 [15]: 0.134 µM; IC50 [17]: > 2 µM; IC50 [36]: > 2 µM; IC50 [21]: > 2 µM; IC50 [35]: > 2 µM; IC50 [26]: 1.57 µM; IC50 [30]: > 2 µM; IC50 [31]: > 2 µM; IC50 [32]: > 2 µM; IC50 [33]: > 2 µM; IC50 [34]: > 2 µM
CCN(CC)CCCCNc1ncc2cc(-c3cc(OC)cc(OC)c3)c(NC(=O)NC(C)(C)C)nc2n1 [PD-173074] | > 2 µM | > 2 µM | > 2 µM | > 2 µM | > 2 µM | > 2 µM | 0.547 µM | > 2 µM | 1.24 µM | > 2 µM | > 2 µM | 0.547 µM | > 2 µM | > 2 µM | > 2 µM | > 2 µM | > 2 µM | > 2 µM | > 2 µM | > 2 µM | IC50 [6]: > 2 µM; IC50 [7]: > 2 µM; IC50 [9]: > 2 µM; IC50 [11]: > 2 µM; IC50 [12]: > 2 µM; IC50 [15]: > 2 µM; IC50 [17]: > 2 µM; IC50 [21]: 0.859 µM; IC50 [26]: > 2 µM; IC50 [30]: > 2 µM; IC50 [31]: > 2 µM; IC50 [32]: > 2 µM; IC50 [33]: > 2 µM; IC50 [34]: > 2 µM
Cn1cnc2c(F)c(Nc3ccc(Br)cc3Cl)c(C(=O)NOCCO)cc21 [SELUMETINIB] | 1.62 µM | 0.128 µM | > 4 µM | > 4 µM | > 4 µM | 0.332 µM | 2.26 µM | > 4 µM | > 4 µM | > 4 µM | 1.03 µM | > 4 µM | > 4 µM | > 4 µM | > 4 µM | > 4 µM | > 4 µM | > 4 µM | > 4 µM | > 4 µM | IC50 [6]: > 4 µM; IC50 [7]: > 4 µM; IC50 [9]: 0.531 µM; IC50 [12]: > 4 µM; IC50 [15]: > 4 µM; IC50 [21]: > 4 µM; IC50 [26]: 1.52 µM; IC50 [30]: > 4 µM; IC50 [31]: > 4 µM; IC50 [32]: > 4 µM; IC50 [33]: > 4 µM; IC50 [34]: > 4 µM
